In assay [1] the test system is R5-HIV-1Ba-L. Description: MAGI assay using MAGI/CCR5 cells and R5-HIV-1Ba-L. The class given is cell-based. The settings on record: Human immunodeficiency virus 1, BAL, Ba-L (MAGI). The method, then:
MAGI-CCR5 cells[18] were maintained in DMEM supplemented with 10% fetal calf serum (FCS: Gemini Bio-Products, West Sacramento, CA), 200 μg/ml G418, 100 μg/ml hygromycin B, and 100 μg/ml zeomycin. The Chinese hamster ovary (CHO) cells expressing CCR5[19] were maintained in Ham’s F-12 medium (GIBCO-BRL, Rockville, MD) supplemented with 10% FCS, 50 U/ml penicillin, and 50 μg/ml streptomycin in the presence of 5 μg/ml blasticidin S hydrochloride. TZM-bl cells were obtained from the NIH AIDS Reagent Program, and were cultured in DMEM with 10% FCS. Peripheral blood mononuclear cells (PBMCs) were isolated from buffy coats of HIV-1 seronegative individuals, and were activated with 10 μg/ml phytohemagglutinin (PHA) prior to use[16]. A laboratory wild-type R5-HIV-1 strain (HIV-1Ba-L)[37] was employed for drug susceptibility assays. AD101 (experimental CCR5 inhibitor) and VVC-resistant HIV clones[7],[8] were provided by Dr. John P. Moore of Cornell University for this study. The clones were propagated with activated PBMCs, and were used for the assays. A clinical HIV-1 strain, HIV-1KP-5pc, and an MVC-resistant isolate, HIV-1KP-5mvcR, were prepared and used for antiviral assays, as previously described[10],[38]. The following reagents (plasmids) for T/F HIV-1 viruses[22],[24] were obtained through the NIH AIDS Reagent Program, Division of AIDS, NIAID, NIH: pCH040.c/2625 (cat# 11740), pCH106.c/2633 (cat# 11743), pTHRO.c/2626 (cat# 11745), and pCH058.c/2960 (cat# 11856), from Dr. John Kappes and Dr. Christina Ochsenbauer.
Antiviral assays using PHA-PBMCs (p24 assay) were conducted as previously reported[16],[38]. In brief, PHA-PBMCs (1 × 10^6/ml) were exposed to 50 TCID50 of HIV-1Ba-L or drug-resistant HIV-1 infectious clones in the presence or absence of various concentrations of drugs; 10-fold serial dilutions were performed in 96-well microculture plates. The amount of p24 antigens produced by the cells was determined on day 7 in the culture via a commercially available ELISA kit (PerkinElmer). The p24 production level in drug-free control cell cultures was used as the reference. […] Antiviral assays using MAGI-CCR5 cells (MAGI assay) were conducted as previously reported[16],[39]. Single-round virus infection assays using TZM-bl cells infected with R5-HIV-1s (HIV-1YU2, HIV-1KP-5pc, and HIV-1KP-5mvcR)[10] were also conducted as previously described.

Assay [2] deals with T1, CCR5 (Homo sapiens, UniProt P51681).
T1 construct: expressed in transfected cells; host or cells: Chinese hamster ovary (CHO) cells expressing CCR5
T1 sequence (P51681 whole entry): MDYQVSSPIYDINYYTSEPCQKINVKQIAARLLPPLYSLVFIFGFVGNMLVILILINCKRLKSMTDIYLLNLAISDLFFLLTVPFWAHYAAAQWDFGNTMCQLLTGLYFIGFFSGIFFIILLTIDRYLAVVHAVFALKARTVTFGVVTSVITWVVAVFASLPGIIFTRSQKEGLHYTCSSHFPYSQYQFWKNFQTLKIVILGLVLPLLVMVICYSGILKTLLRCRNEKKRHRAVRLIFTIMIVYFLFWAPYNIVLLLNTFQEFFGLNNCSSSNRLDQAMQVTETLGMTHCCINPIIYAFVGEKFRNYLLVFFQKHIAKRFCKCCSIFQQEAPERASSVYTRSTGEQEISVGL
Description: Inhibition of 125I-MIP-1β binding to CCR5 (CCR5+ CHO cells). The procedure: (§1) In order to determine whether GRL derivatives block the binding of CC-chemokines to CCR5, we conducted a CC-chemokine binding inhibition assay using ^125I-labeled CC-chemokines (^125I-RANTES, ^125I-MIP-1α, and ^125I-MIP-1β) and CCR5 expressing cells.
(§2) CCR5^+ CHO cells were incubated with (A) ^125I-MIP-1α, (B) ^125I-MIP-1β, and (C) ^125I-RANTES (200 ng/ml) in the presence or absence of varying concentrations of CCR5 inhibitors. Data are shown as means ± s.d. of three independent experiments.
(§3) The inhibition of the binding of ^125I-labeled CC-chemokines ([^125I] RANTES, [^125I] MIP-1α, or [^125I] MIP-1β) to CCR5 by various CCR5 inhibitors was measured as previously described. Calcium flux inhibition assays were also performed with CCR5 inhibitors, and were carried out with the Fluo-4 Direct^TM calcium reagent (Invitrogen); assays were conducted as previously described with minor modifications. In brief, CHO-CCR5 cells (5 × 10^5 cells) were exposed to Fluo-4 Direct^TM calcium reagent for 60 min at 37 °C in RPMI containing 5% FCS. Cells were then incubated with the test compound for 30 min at varying concentrations. Subsequently, cells were exposed to either MIP-1α, MIP-1β, or RANTES at 200 ng/ml. Relative increases in cytosolic Ca^2+ levels after chemokine exposure were determined with flow cytometry (FACSCalibur, BD Biosciences), and IC50 values of cytosolic Ca^2+ mobilization (Ca^2+ flux) were compared with the Ca^2+ flux level in drug-free control samples.

In assay [3] the test system is Transmitter/founder (T/F) HIV-1 viruses. Description: MAGI assay, all four T/F viruses (range). Type of assay: cell-based. The settings on record: Human immunodeficiency virus 1, MAGI, read-out: IC50 values (range over four T/F viruses). The source says:
We also examined the activity of GRL-compounds against Transmitter/founder (T/F) HIV-1 viruses. T/F viruses are involved in the initial infection. It is considered that T/F viruses virtually always use CCR5 rather than CXCR4 and infect T cells but not macrophages because […] of CD4 is needed to mediate virus entry for the initial transmission[20]–[24]. […] We obtained four HIV-1 T/F infectious clones. We determined the antiviral activity of GRL-117C, GRL-10007C and GRL-10018C on these HIV-1 clones using MAGI assay.
MAGI-CCR5 cells[18] were maintained in DMEM supplemented with 10% fetal calf serum (FCS: Gemini Bio-Products, West Sacramento, CA), 200 μg/ml G418, 100 μg/ml hygromycin B, and 100 μg/ml zeomycin. The Chinese hamster ovary (CHO) cells expressing CCR5[19] were maintained in Ham’s F-12 medium (GIBCO-BRL, Rockville, MD) supplemented with 10% FCS, 50 U/ml penicillin, and 50 μg/ml streptomycin in the presence of 5 μg/ml blasticidin S hydrochloride. TZM-bl cells were obtained from the NIH AIDS Reagent Program, and were cultured in DMEM with 10% FCS. […]
Antiviral assays using PHA-PBMCs (p24 assay) were conducted as previously reported[16],[38]. […] The amount of p24 antigens produced by the cells was determined on day 7 in the culture via a commercially available ELISA kit (PerkinElmer). […]

Assay [4] deals with T1, CCR5. Description: Inhibition of 125I-RANTES binding to CCR5 (CCR5+ CHO cells). The method, then:
as §1, §2, §3

One may read the IC90 as the concentration at which the effect reaches the 90% level. As usually defined, the EC50 is the midpoint of the concentration-response curve. High values mean weaker potency, low ones greater potency.

Take `C=CCN(C(=O)OCc1ccc([N+](=O)[O-])cc1)C1CC2CCC(C1)N2CCC(C)(CN(C)S(=O)(=O)c1ccccc1)c1ccccc1` (centres unmarked) [GRL-117C]: the IC50 in assay [1] is 0.6 nM; in assay [3], 1.9 to 3.2 nM. Moreover, it took 8.9 nM to reach the 90% level in assay [1] (IC90). Moreover, the figures for the EC50 in assay [2] and in assay [4] were 2 nM and 121 nM, respectively.
